US4487761A, “Dopamine β-hydroxylase inhibitors” (Merck & Co., Inc., priority 1982, dated 1984)

Biological target: T1, Dopamine β-hydroxylase (Bos taurus, UniProt P15101)
T1 construct: Dopamine β-hydroxylase was obtained from beef adrenal glands; from tissue; host or cells: beef adrenal glands
T1 sequence (P15101 1-610): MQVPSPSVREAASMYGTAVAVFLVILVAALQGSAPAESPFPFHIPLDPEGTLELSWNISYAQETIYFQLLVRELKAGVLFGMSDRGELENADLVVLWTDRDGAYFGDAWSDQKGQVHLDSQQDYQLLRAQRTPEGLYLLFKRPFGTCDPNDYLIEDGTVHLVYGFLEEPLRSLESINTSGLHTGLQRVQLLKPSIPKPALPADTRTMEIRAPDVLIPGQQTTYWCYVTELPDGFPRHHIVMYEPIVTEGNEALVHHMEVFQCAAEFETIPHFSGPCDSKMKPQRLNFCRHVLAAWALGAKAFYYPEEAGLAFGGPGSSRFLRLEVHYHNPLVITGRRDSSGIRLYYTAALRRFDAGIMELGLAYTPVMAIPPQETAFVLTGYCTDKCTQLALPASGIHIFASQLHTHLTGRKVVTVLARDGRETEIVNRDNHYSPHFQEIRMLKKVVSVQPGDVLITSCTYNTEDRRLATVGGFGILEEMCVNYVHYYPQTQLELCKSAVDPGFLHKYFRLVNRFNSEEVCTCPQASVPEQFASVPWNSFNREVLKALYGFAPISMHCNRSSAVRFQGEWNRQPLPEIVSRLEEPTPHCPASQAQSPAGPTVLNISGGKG
Assay: Dopamine β-Hydroxylase Inhibition Assay
Assay type: biochemical
Conditions: 5 mM tyramine, pH 5.5, 37° C., 10 minutes; enzyme from beef adrenal glands; read-out: I50 (inhibition median) (converted)
Procedure: Dopamine β-hydroxylase was obtained from beef adrenal glands. Minced adrenals were homogenized with 0.025M potassium phosphate buffer (pH--6.4) and centrifuged. The supernatant was adjusted to a final concentration of 1% Triton X-100 (Calbiochem. Inc.) by the addition of one-fourth volume of a 5% Triton X-100 solution and stirred at room temperature for 30 minutes. The Triton X-100 treated supernatant was centrifuged, and fractionated with a 66% aqueous ammonium sulfate solution. The resulting precipitate was homogenized in 0.025M potassium phosphate buffer (pH=6.4) and dialyzed. The dialysate was applied to a DE-52 Cellulose Column (Whatman Co.), pre-equilibrated with 0.005M potassium phosphate buffer (pH=6.4), and preloaded with about 2 cm of acid-washed activated carbon, located directly above the cellulose resin. […]
The assay for the dopamine β-hydroxylase inhibition was carried out in a 1 ml incubation mixture containing 5 mM tyramine (freashly prepared), 1.5 mM ascorbic acid (prepared monthly), 0.4 mM sodium fumarate, 0.045 mM pargyline, catalase ([…] per ml, 500 units) and 0.065M sodium acetate buffer, pH 5.5. […] The optical absorbance of the organic phase was measured at 280 nm. […]

Row | IC50 [nM] | SMILES
1 | ~158 | Cc1nc(O)c(O)c(CO)c1O [Compound I]
2 | ~262 | Cc1nc(O)c(O)cc1O [Compound II]
